Results taken from patent US20210353652A1, “TUMOR MICROENVIRONMENT-ACTIVATED DRUG-BINDER CONJUGATES, AND USES RELATED THERETO” (Trustees of Tufts College, priority 2018, published 2021).
Each block holds one molecule with its values, some of them ahead of it.

Assays:
[1] = Acute toxicity study in Sprague Dawley rats; type: in vivo, rat; conditions: SD rats, subcutaneous
Procedure: The comparative in vivo safety of a representative linker-VbP pro-drug administered subcutaneously at a dose equivalent to 10-fold the maximum tolerated dose (MTD) of VbP was established in Sprague Dawley (SD) rats, i.e., 10 times the dose of VbP that […] of the SD rats.
Prior to administration, MAL-activated 6323 (PEGs-linker-VbP pro-drug) was conjugated to L-cysteine in order to inactivate the MAL moiety. L-cysteine (5 mg; Sigma) was dissolved in 1 mL of MAL-activated 6323 (4.8 mM in 50 mM MES, 150 mM NaCl, pH 6) to achieve an approximate stoichiometry of 10:1 L-cysteine:6323. The resulting solution was incubated at room temperature for 2-3 hours, after which time the reaction was confirmed to have reached completion by LC-MS analysis. The resulting Cys-modified 6323 was purified by preparative RP-HPLC using a Supelco Discovery C18 column with a 2:98 acetonitrile:water (0.1% TFA) gradient over 10 minutes, and was subsequently lyophilized.
Six (6) male SD rats (Charles River) were injected subcutaneously with 1.47 mg/kg Cys-modified 6323 (equivalent to 0.25 mg VbP/kg) in sterile PBS. […] In this study, the MTD for VbP was considered to be 0.025 mg VbP/kg. At 24 hours, 5 of the 6 animals administered Cys-modified 6323 at a dose equivalent to 10-times the VbP MTD survived, indicating a safety margin for the VbP pro-drug relative VbP.

J774A.1 cells = experiment: Pyroptosis (LDH release) in J774 mouse macrophage cell line; type: cell-based; conditions: 1 μM, 24 hours
Procedure: Affimer-linker-VbP pro-drugs are designed to be cleaved by FAPα to release VbP.
J774A.1 cells (mouse monocyte macrophages; ATCC) were grown in DMEM-10%-FBS in 75 cm^2 tissue culture flasks, harvested by scraping in PBS, resuspended in DMEM-1%-FBS, plated in 96-well plates (VWR) at a density of 5×10^3 cells per well, and placed in a 5% C02 incubator at 37° C. After incubation for 24 hours, serial 10-fold dilutions of VbP, unconjugated AVA04-182 Fc, linker-VbP pro-drugs (6325, 6326 and 6328), and Affimer-linker-VbP pro-drugs (AVA04-182 Fc-6325, −6326 and −6328) were added to wells with and without addition of rhFAPα (R&D Systems) at a final concentration of 25 nM. Each reaction mixture was tested in triplicate and incubated for a further 24 hours at 37° C. Lactate dehydrogenase (LDH; a marker of pyroptosis) released into culture supernatants, was measured using the CytoTox 96 Non-Radioactive Cytotoxicity Assay (Promega) according to the manufacturer's instructions. LDH concentrations were determined by absorbance (A490) measurements in a SpectraMax® M2^e microplate reader (Molecular Devices). Percent LDH release was calculated by subtracting the background release in wells containing DMEM-1%-FBS without cells and expressing the resulting values as percentages of the LDH released by the CytoTox 96 lysis reagent.

MV4-11 AML cells = experiment: MV4-11 AML model in NOD-SCID Il2rg-/- mice; type: in vivo, mouse; conditions: intraperitoneal once a day, 5 days on, 2 days off
Source text: One million MV4-11 cells injected into the tail vein of 10-week-old female NOD-SCID Il2rg−/−mice.

[2] = test system: humanized PD-L1 MC38 tumour cell line; experiment: Humanised PD-L1 MC38 syngeneic model of colorectal cancer; type: in vivo; conditions: VbP 0.02 mg/mouse per os added to AVA04-251 Fc, compared to the monotherapy
Procedure: Mice (n=8/group, C57BL/6) were inoculated subcutaneously in the right flank region with a humanized PD-L1 MC38 tumour cell line (in which the mouse PD-L1 extracellular domain was replaced by the equivalent human domain; CrownBio Inc). AVA04-251 Fc and associated control (SQTgly Fc) were injected via the IP route once tumours were >80 mm^3. Treatments were administered twice a week for 3 weeks at a dose of 10 mg/kg (AVA04-251 Fc and its control, SQTgly Fc). VbP (Tufts University) was administered 5 times a week (with 2 days off) at 0.02 mg/mouse per os. Overall, tumour growth inhibition was shown for both treatments (FIG. 17).
Seventy (70) days after the inoculation of the tumour, three (3) mice from the group treated with AVA04-251 Fc and VbP were inoculated a second time with the huMC38 cell line (a control group was inoculated at the same time) to assess if the immune system developed a memory response, preventing subsequent tumor growth.

AML cell lines = experiment: Pyroptosis in AML cell lines in vitro; type: cell-based
[3] = molecular target: mouse PD-L1 Fc (R&D Systems) (mouse) (UniProt Q9EP73); experiment: PD-1/PD-L1 competitive ELISA: antibody preincubated with mouse PD-L1 Fc, then loaded on plate-coated mouse PD-1 Fc; % inhibition
Sequence of mouse PD-L1 Fc (R&D Systems) (mouse) (Q9EP73 19-238): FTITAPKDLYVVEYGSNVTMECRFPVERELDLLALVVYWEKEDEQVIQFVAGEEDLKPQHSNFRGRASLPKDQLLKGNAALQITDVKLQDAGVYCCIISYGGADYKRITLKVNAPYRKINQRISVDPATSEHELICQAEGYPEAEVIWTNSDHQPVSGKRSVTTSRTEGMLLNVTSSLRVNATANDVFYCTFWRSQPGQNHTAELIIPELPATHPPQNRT

[4] = test system: T cell response (BMDC co-cultured with allogenic CD4+ T cells); experiment: Mouse mixed lymphocyte reaction (MLR) assay; type: cell-based; conditions: ELISA of supernatant after 3 days of culture, in comparison to isotype control or SQTGly Fc
Procedure: A mouse mixed lymphocyte reaction (MLR) assay was performed to assess the ability of AVA04-182 Fc to modulate the T cell response. In this MLR assay, BMDC (bone marrow dendritic cells) were generated from the bone marrow of one (1) C57BL/6 mouse, cultured for seven (7) days in the presence of GM-CSF. Cells were then co-cultured with allogenic CD4+ T cells isolated from the spleen of a Balb/c mouse using negative selection. The MLR assay was performed in the presence or absence of the test products (AVA04-182 Fc, SQTgly Fc [SEQ ID NO: 120; Affimer Fc fusion without PD-L1 targeting], Avelumab and its isotype control, HuIgG1) and controls (anti-mouse PD-L1 clone 10F9.G2 and its isotype control, rat IgG2b). Test products were evaluated at three concentrations (700, 70 and 7 nM) and the controls at one concentration (70 nM). After 3 days of culture, cell culture supernatant was harvested and the secretion of interferon γ (IFNγ) and interleukin-2 (IL-2) was evaluated using ELISA. The anti-mouse PD-L1 and Avelumab induced an increase in IL-2 (data not shown) and IFNγ secretion, in comparison to their isotype controls (FIG. 4). Similarly, AVA04-182 Fc treatment led to an increase in IL-2 (data not shown) and IFNγ secretion at all concentrations tested, in comparison to SQTGly Fc (FIG. 4).

[5] = molecular target: T1, human PD-L1 Fc (R&D Systems) chimeric protein (human, UniProt Q9NZQ7 19-239); experiment: binding ELISA on plate-coated human PD-L1 Fc, detection with biotinylated anti-cystatin A and streptavidin-HRP; the table gives no unit, nM is the x axis of the curve
T1 construct: Bought reagent; also called human PD-L1 Fe; not shown: Fc part of the bought R&D Systems chimera
T1 sequence (Q9NZQ7 19-239, change not shown): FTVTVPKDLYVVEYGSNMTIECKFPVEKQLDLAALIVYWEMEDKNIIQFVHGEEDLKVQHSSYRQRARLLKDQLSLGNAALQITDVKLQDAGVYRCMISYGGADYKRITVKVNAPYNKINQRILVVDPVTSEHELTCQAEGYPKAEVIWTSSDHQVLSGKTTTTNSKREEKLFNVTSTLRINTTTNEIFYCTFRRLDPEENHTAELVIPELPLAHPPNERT

Molecule: CC(C)[C@H](N)C(=O)N1CCC[C@H]1B(O)O [VbP, Val-boroPro]
- MTD [1]: 0.025 mg VbP/kg
- LDH release in the presence of rhFAPα (J774A.1 cells; 25 nM rhFAPα): significant LDH release
- LDH release in the absence of rhFAPα (J774A.1 cells; no rhFAPα): significant LDH release
- Efficacy against MV4-11 AML cells in vivo (MV4-11 AML cells): demonstrates efficacy
- Escape of tumour growth at Day 13 [2]: none of the mice showed escape of tumour growth
- Induction of pyroptosis (AML cell lines): induces pyroptosis

Molecule: Avelumab: anti-PD-L1 antibody
- IFNγ secretion [4]: increase
- IL-2 secretion ([4]; data not shown): increase

Other lines, results leading:

- IC50 [3]: 0.692 nM
Molecule: Anti muPD-L1 (10F9.G2) (antibody)

- EC50 [5]: 0.0904 nM
B1: AVA04-251 BH cys-800 (designed binder)
chain: MIPRGLSEAKPATPEIQEIVDKVKPQLEEKTNETYGKLEAVQYKTQVLAREGRQDWVLSTNYYIKVRAGDNKYMHLKVFNGPWVPFPHQQLADRVLTGYQVDKNKDDELTGFAEAAAKEAAAKEAAAKEAAAKEAAAKEAAAKMIPRGLSEAKPATPEIQEIVDKVKPQLEEKTNETYGKLEAVQYKTQVLAREGRQDWVLSTNYYIKVRAGDNKYMHLKVFNGPWVPFPHQQLADRVLTGYQVDKNKDDELTGFLQAAAHHHHHHC
modifications: IRDye 800CW conjugated with maleimide chemistry (to the single Cys residue)
notes: Dye conjugate of m3; also called conjugated Affimer

- EC50 [5]: 0.0355 nM
B2: AVA04-251 BH cys (designed binder)
chain: B1 chain
notes: Produced in E. coli BL21; also called parental molecule
